The structures appear in SMILES notation. Calls of active or inactive are those of the source. The rule behind the calls is not given here.

Data on 12 compounds can be found in PubChem BioAssay AID1259407 (Chemical Carcinogenesis Research Information System (CCRIS), 2018).

The series relates to CCRIS mutagenicity, Ames/micronucleus/aberration tests. The experiment in a line: CCRIS mutagenicity studies.
[1] abbreviates: Test System: AMES SALMONELLA TYPHIMURIUM, Strain/Indicator: TA100, Metabolic Activation: NONE, Method: PREINCUBATION
The mark [2] stands for this setting: Test System: AMES SALMONELLA TYPHIMURIUM, Strain/Indicator: TA98, Metabolic Activation: NONE, Method: STANDARD PLATE.
Where [3] appears, read: Test System: AMES SALMONELLA TYPHIMURIUM, Strain/Indicator: TA100, Metabolic Activation: NONE, Method: STANDARD PLATE.
Where [4] appears, read: Test System: AMES SALMONELLA TYPHIMURIUM, Strain/Indicator: TA1537, Metabolic Activation: NONE, Method: STANDARD PLATE.
Setting [5] is: Test System: AMES SALMONELLA TYPHIMURIUM, Strain/Indicator: TA100, Metabolic Activation: RAT, LIVER, S-9, AROCLOR 1254, Method: STANDARD PLATE.
[6] abbreviates: Test System: AMES SALMONELLA TYPHIMURIUM, Strain/Indicator: TA1535, Metabolic Activation: NONE, Method: STANDARD PLATE.
Where [7] appears, read: Test System: AMES SALMONELLA TYPHIMURIUM, Strain/Indicator: TA1535, Metabolic Activation: RAT, LIVER, S-9, AROCLOR 1254, Method: STANDARD PLATE.
The mark [8] stands for this setting: Test System: AMES SALMONELLA TYPHIMURIUM, Strain/Indicator: TA1537, Metabolic Activation: RAT, LIVER, S-9, AROCLOR 1254, Method: STANDARD PLATE.
[9] abbreviates: Test System: AMES SALMONELLA TYPHIMURIUM, Strain/Indicator: TA1538, Metabolic Activation: NONE, Method: STANDARD PLATE.

Regarding `CCCCCCCCCCCCOCC1CO1` (stereo not drawn), the mutagenic call is, setting by setting: (Test System: AMES SALMONELLA TYPHIMURIUM, Strain/Indicator: TA97, Metabolic Activation: HAMSTER, LIVER, S-9, AROCLOR 1254 (10%), Method: PREINCUBATION) “inactive; negative”; (Test System: AMES SALMONELLA TYPHIMURIUM, Strain/Indicator: TA97, Metabolic Activation: HAMSTER, LIVER, S-9, AROCLOR 1254 (30%), Method: PREINCUBATION) “inactive; negative”; (Test System: AMES SALMONELLA TYPHIMURIUM, Strain/Indicator: TA97, Metabolic Activation: NONE, Method: PREINCUBATION) “inactive; negative”; (Test System: AMES SALMONELLA TYPHIMURIUM, Strain/Indicator: TA97, Metabolic Activation: RAT, LIVER, S-9, AROCLOR 1254 (10%), Method: PREINCUBATION) “inactive; negative”; (Test System: AMES SALMONELLA TYPHIMURIUM, Strain/Indicator: TA97, Metabolic Activation: RAT, LIVER, S-9, AROCLOR 1254 (30%), Method: PREINCUBATION) “inactive; negative”; (Test System: AMES SALMONELLA TYPHIMURIUM, Strain/Indicator: TA98, Metabolic Activation: HAMSTER, LIVER, S-9, AROCLOR 1254 (10%), Method: PREINCUBATION) “inactive; negative”. Further, the mutagenic call by setting is: (Test System: AMES SALMONELLA TYPHIMURIUM, Strain/Indicator: TA98, Metabolic Activation: HAMSTER, LIVER, S-9, AROCLOR 1254 (30%), Method: PREINCUBATION) “inactive; negative”; (Test System: AMES SALMONELLA TYPHIMURIUM, Strain/Indicator: TA98, Metabolic Activation: NONE, Method: PREINCUBATION) “inactive; negative”; (Test System: AMES SALMONELLA TYPHIMURIUM, Strain/Indicator: TA98, Metabolic Activation: RAT, LIVER, S-9, AROCLOR 1254 (10% & 30%), Method: PREINCUBATION) “inactive; negative”; (Test System: AMES SALMONELLA TYPHIMURIUM, Strain/Indicator: TA100, Metabolic Activation: HAMSTER, LIVER, S-9, AROCLOR 1254 (10%), Method: PREINCUBATION) “inactive; negative”; (Test System: AMES SALMONELLA TYPHIMURIUM, Strain/Indicator: TA100, Metabolic Activation: HAMSTER, LIVER, S-9, AROCLOR 1254 (30%), Method: PREINCUBATION) “inactive; negative”; under setting [1], “inactive; negative”. The mutagenic call runs as follows: (Test System: AMES SALMONELLA TYPHIMURIUM, Strain/Indicator: TA100, Metabolic Activation: RAT, LIVER, S-9, AROCLOR 1254 (10%), Method: PREINCUBATION) “inactive; negative”; (Test System: AMES SALMONELLA TYPHIMURIUM, Strain/Indicator: TA100, Metabolic Activation: RAT, LIVER, S-9, AROCLOR 1254 (30%), Method: PREINCUBATION) “inactive; negative”; (Test System: AMES SALMONELLA TYPHIMURIUM, Strain/Indicator: TA1535, Metabolic Activation: HAMSTER, LIVER, S-9, AROCLOR 1254 (10%), Method: PREINCUBATION) “inactive; negative”; (Test System: AMES SALMONELLA TYPHIMURIUM, Strain/Indicator: TA1535, Metabolic Activation: NONE, Method: PREINCUBATION) “inactive; negative”; (Test System: AMES SALMONELLA TYPHIMURIUM, Strain/Indicator: TA1535, Metabolic Activation: RAT, LIVER, S-9, AROCLOR 1254 (10%), Method: PREINCUBATION) “inactive; negative”; (Test System: AMES SALMONELLA TYPHIMURIUM, Strain/Indicator: TA1535, Metabolic Activation: RAT, LIVER, S-9, AROCLOR 1254 (30%), Method: PREINCUBATION) “inactive; negative”.

In the case of `c1ccc([C@H]2O[C@H]2c2ccccc2)cc1`, where the note is “Test System: UDS RAT HEPATOCYTES, Strain/Indicator: THY INCORP, Metabolic Activation: NONE”, the mutagenic call was “inactive; negative”.

In the case of `C[C@@H]1CC[C@@]2(OC1)O[C@H]1C[C@H]3[C@@H]4CC=C5C[C@@H](O[C@@H]6O[C@H](CO)[C@@H](O)[C@H](O[C@@H]7O[C@H](CO)[C@@H](O)[C@H](O)[C@H]7O)[C@H]6O[C@@H]6O[C@@H](C)[C@H](O)[C@@H](O)[C@H]6O)CC[C@]5(C)[C@H]4CC[C@]3(C)[C@H]1[C@@H]2C`, the mutagenic call under setting [2] is “inactive; negative”; the mutagenic call (Test System: AMES SALMONELLA TYPHIMURIUM, Strain/Indicator: TA98, Metabolic Activation: RAT, LIVER, S-9, PHENOBARBITAL, Method: STANDARD PLATE) was “inactive; negative”; the mutagenic call under setting [3] is “inactive; negative”; the mutagenic call (Test System: AMES SALMONELLA TYPHIMURIUM, Strain/Indicator: TA100, Metabolic Activation: RAT, LIVER, S-9, PHENOBARBITAL, Method: STANDARD PLATE) is “inactive; negative”.

For the compound `COc1cc(NS(C)(=O)=O)ccc1Nc1c2ccccc2nc2ccc(N=[N+]=[N-])cc12`, the mutagenic call under setting [4] is “active; positive”.

For the compound `Nc1ccc([N+](=O)[O-])c(O)c1`, the mutagenic call is “inactive; negative” under setting [2]; “inactive; negative” under setting [3]; “inactive; negative” under setting [5]; “inactive; negative” under setting [6]; “inactive; negative” under setting [7]; “inactive; negative” under setting [4]. The mutagenic call is, setting by setting: under setting [8], “inactive; negative”; under setting [9], “inactive; negative”.

In the case of `CC(Br)C(Br)COP(=O)(OCC(Br)C(C)Br)OCC(Br)C(C)Br` (stereo not drawn), the mutagenic call runs as follows: (Test System: AMES SALMONELLA TYPHIMURIUM, Strain/Indicator: TA100, Metabolic Activation: RAT, LIVER, MICROSOMES, PHENOBARBITAL, Method: PREINCUBATION) “active; positive”; (Test System: AMES SALMONELLA TYPHIMURIUM, Strain/Indicator: TA100, Metabolic Activation: RAT, LIVER, MICROSOMES, Method: PREINCUBATION) “active; positive”.

As for `CCC[CH2][Sn]([CH2]CCC)([CH2]CCC)[CH2]CCC`, the mutagenic call is “inactive; negative” (Test System: AMES SALMONELLA TYPHIMURIUM, Strain/Indicator: TA98, Metabolic Activation: NONE, Method: SUSPENSION/PLATE) and “inactive; negative” (Test System: AMES SALMONELLA TYPHIMURIUM, Strain/Indicator: TA100, Metabolic Activation: NONE, Method: SUSPENSION/PLATE).

Turning to `N=c1cc2oc3cc(N)ccc3nc-2c2ccccc12`, the mutagenic call runs as follows: under setting [9], “inactive; negative”; (Test System: AMES SALMONELLA TYPHIMURIUM, Strain/Indicator: TA1538, Metabolic Activation: RAT, LIVER, S-9, AROCLOR 1254, Method: STANDARD PLATE) “active; positive”.

For the compound `Cc1cc2c3c(ccc2c2ccccc12)[C@@H](O)[C@H](O)[C@@H]1O[C@H]31`, the mutagenic call under setting [1] was “inactive; negative”.

Turning to `O=c1c(Cl)c(Cl)cnn1S(=O)(=O)c1ccccc1`, the mutagenic call under setting [2] is “inactive; negative”; the mutagenic call (Test System: AMES SALMONELLA TYPHIMURIUM, Strain/Indicator: TA98, Metabolic Activation: RAT, LIVER, S-9, AROCLOR 1254, Method: STANDARD PLATE) is “inactive; negative”; the mutagenic call under setting [3] was “inactive; negative”; the mutagenic call under setting [5] is “inactive; negative”; the mutagenic call under setting [6] was “inactive; negative”; the mutagenic call under setting [7] is “inactive; negative”. Further, the mutagenic call is, setting by setting: under setting [4], “inactive; negative”; under setting [8], “inactive; negative”.

As for `CCc1c(N)ccc2ccccc12`, the mutagenic call under setting [2] is “inactive; negative”; the mutagenic call (Test System: AMES SALMONELLA TYPHIMURIUM, Strain/Indicator: TA98, Metabolic Activation: RAT LIVER S-9, AROCLOR, Method: STANDARD PLATE) was “active; positive”; the mutagenic call under setting [3] is “inactive; negative”; the mutagenic call (Test System: AMES SALMONELLA TYPHIMURIUM, Strain/Indicator: TA100, Metabolic Activation: RAT LIVER S-9, AROCLOR, Method: STANDARD PLATE) is “active; positive”.

For the compound `O=C(O)/C=C/Cl`, the mutagenic call (Test System: AMES SALMONELLA TYPHIMURIUM, Strain/Indicator: TA97, Metabolic Activation: RAT, LIVER, S-9, PCB, Method: STANDARD PLATE) was “active; positive” and the mutagenic call (Test System: AMES SALMONELLA TYPHIMURIUM, Strain/Indicator: TA102, Metabolic Activation: RAT, LIVER, S-9, PCB, Method: STANDARD PLATE) was “active; positive”.
